Test results as given in patent US7807678B2, “Peptidomimetics of biologically active metallopeptides” (Palatin Technologies, Inc., priority 2001, dated 2010).
Read-outs that look alike come from different tables or passages of the source. Non-standard residues stand in square brackets, D forms with d. Residues, ends and D or L forms follow the SMILES beside them. *: point of attachment. Hyp = O=C(O)[CH]1C[CH](O)CN1; Nle = CCCC[CH](N)C(=O)O; NH(CH2)3NH2 = NCCCN*; Bn = c1ccc(C*)cc1

Experiments:
MC4-R [1] = target: T1, MC4-R (Homo sapiens, UniProt P32245); test: Ki determination by the method of Example 4, MC4-R; format: binding; parameters: expressed in transfected cells; host or cells: HEK-293
Protocol: (§1) The Ki (nM) of certain peptidomimetics were determined, as was the agonist/antagonist status with respect to MC4-R, Functional evaluation of compounds at melanocortin receptors was performed by measuring the accumulation of intracellular cAMP in HEK-293 cells expressing MC3-R, MC4-R or MC5-R, and in B-16 mouse melanoma cells (containing MC1-R). Antagonistic activity was determined by measuring the inhibition of α-MSH-induced cAMP levels following exposure to the compounds. Cells, suspended in Earle's Balanced Salt Solution containing 10 mM HEPES, pH 7.5, 5 mM MgCl2, 1 mM glutamine, 0.1% albumin and 0.6 mM 3-isobutyl-1-methyl-xanthine, a phosphodiesterase inhibitor, were plated in 96 well plates at a density of 0.5×10^5 cells per well. Cells were incubated with the test compounds in the presence or absence of α-MSH for 1 hour at 37° C. cAMP levels were measured by EIA (Amersham) in the cell lysates. Data analysis and EC50 values were determined using nonlinear regression analysis with Prism Graph-Pad software.

MC5-R [2] = target: T2, MC5-R (Homo sapiens, UniProt P33032); test: Ki determination by the method of Example 4, MC5-R; format: binding; parameters: expressed in transfected cells; host or cells: HEK-293
Protocol: as §1

[3] = target: T3, MC1-R (B-16 mouse melanoma cells) (Mus musculus, UniProt Q01727); test: Ki determination by the method of Example 4, MC1-R; format: binding
T3 construct: B-16 mouse melanoma cells (containing MC1-R); endogenous in cells; host or cells: B-16 mouse melanoma cells
Protocol: as §1

MC3-R [4] = target: T4, MC3-R (Homo sapiens, UniProt P41968); test: Ki determination by the method of Example 4, MC3-R; format: binding; parameters: expressed in transfected cells; host or cells: HEK-293
Protocol: as §1

MC4-R [5] = target: T1, MC4-R; test: Competitive inhibition binding assay, 125I-NDP-α-MSH, MC4-R; parameters: expressed in transfected cells; settings: for Inhibition at 1 μM MC4-R: 1 μM compound, inhibition of 125I-NDP-α-MSH binding, mean of triplicates, results less than 0% reported as 0%
Outline: (§2)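 Membranes from hMC3-R, hMC4-R or hMC5-R cells, or B-16 mouse melanoma cells (MC1-R), were incubated 90 min at room temperature with 0.4 nM 125I-NDP-α-MSH in HEPES pH 7.2 with Mg2+/Ca2+/K+, and test compound generally at 1 μM. Filter-bound radioactivity was gamma counted. Specific binding was defined with 1 μM α-MSH; triplicate means.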

MC5-R [6] = target: T2, MC5-R; test: Competitive inhibition binding assay, 125I-NDP-α-MSH, MC5-R; parameters: expressed in transfected cells; settings: for Inhibition at 1 μM MC5-R: 1 μM compound, inhibition of 125I-NDP-α-MSH binding, mean of triplicates, results less than 0% reported as 0%
Outline: as §2

[7] = target: T3, MC1-R (B-16 mouse melanoma cells); test: Competitive inhibition binding assay, 125I-NDP-α-MSH, MC1-R; settings: 1 μM compound; inhibition of 125I-NDP-α-MSH binding; mean of triplicates; results less than 0% reported as 0%
Outline: as §2

[8] = target: T3, MC1-R (B-16 mouse melanoma cells); test: cAMP assay for agonist/antagonist status, MC1-R; format: cell-based
Protocol: as §1

MC4-R (HEK-293 cells) = target: T5, MC4-R (HEK-293 cells) (Homo sapiens, UniProt P32245); test: cAMP assay for agonist/antagonist status, MC4-R; format: cell-based
T5 construct: expressed in transfected cells; host or cells: HEK-293
Protocol: as §1

MC3-R [9] = target: T4, MC3-R; test: Competitive inhibition binding assay, 125I-NDP-α-MSH, MC3-R; parameters: expressed in transfected cells; settings: for Inhibition at 1 μM MC3-R: 1 μM compound, inhibition of 125I-NDP-α-MSH binding, mean of triplicates, results less than 0% reported as 0%
Outline: as §2

MC5-R (HEK-293 cells) = target: T6, MC5-R (HEK-293 cells) (Homo sapiens, UniProt P33032); test: cAMP assay for agonist/antagonist status, MC5-R; format: cell-based
T6 construct: expressed in transfected cells; host or cells: HEK-293
Protocol: as §1

[10] = bound in μM, read-out: Ki MC1-R
[11] = bound in μM, read-out: Ki MC3-R
[12] = bound in μM, read-out: Ki MC5-R
[13] = bound in μM, read-out: Ki MC4-R

T3 sequence (Q01727 whole entry): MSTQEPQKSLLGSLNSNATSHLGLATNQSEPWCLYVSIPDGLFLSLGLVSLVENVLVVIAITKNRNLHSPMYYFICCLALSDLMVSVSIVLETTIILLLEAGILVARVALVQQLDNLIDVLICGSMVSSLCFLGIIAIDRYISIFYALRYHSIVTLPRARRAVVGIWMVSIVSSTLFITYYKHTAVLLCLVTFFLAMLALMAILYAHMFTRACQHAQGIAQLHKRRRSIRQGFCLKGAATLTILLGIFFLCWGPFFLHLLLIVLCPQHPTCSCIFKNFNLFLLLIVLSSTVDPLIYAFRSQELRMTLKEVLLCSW
T1 sequence (P32245 whole entry): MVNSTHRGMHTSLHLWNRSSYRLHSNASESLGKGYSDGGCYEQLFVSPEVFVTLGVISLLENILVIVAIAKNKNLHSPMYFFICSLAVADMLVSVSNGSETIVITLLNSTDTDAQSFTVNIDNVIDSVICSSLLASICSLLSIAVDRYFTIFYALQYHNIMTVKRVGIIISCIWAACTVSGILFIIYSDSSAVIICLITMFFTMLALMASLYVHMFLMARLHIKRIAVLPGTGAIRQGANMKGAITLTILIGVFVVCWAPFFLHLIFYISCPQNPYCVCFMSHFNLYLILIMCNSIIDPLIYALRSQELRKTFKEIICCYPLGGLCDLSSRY
T5 sequence (P32245 whole entry): as above
T6 sequence (P33032 whole entry): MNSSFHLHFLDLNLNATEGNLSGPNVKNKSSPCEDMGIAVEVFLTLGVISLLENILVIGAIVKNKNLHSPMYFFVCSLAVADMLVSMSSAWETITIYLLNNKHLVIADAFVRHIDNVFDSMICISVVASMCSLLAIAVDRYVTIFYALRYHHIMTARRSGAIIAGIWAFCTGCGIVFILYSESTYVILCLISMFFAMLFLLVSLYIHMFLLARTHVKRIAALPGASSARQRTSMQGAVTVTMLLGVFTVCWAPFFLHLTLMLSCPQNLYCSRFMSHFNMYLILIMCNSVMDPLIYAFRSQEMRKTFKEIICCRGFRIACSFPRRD
T2 sequence (P33032 whole entry): as above
T4 sequence (P41968 whole entry): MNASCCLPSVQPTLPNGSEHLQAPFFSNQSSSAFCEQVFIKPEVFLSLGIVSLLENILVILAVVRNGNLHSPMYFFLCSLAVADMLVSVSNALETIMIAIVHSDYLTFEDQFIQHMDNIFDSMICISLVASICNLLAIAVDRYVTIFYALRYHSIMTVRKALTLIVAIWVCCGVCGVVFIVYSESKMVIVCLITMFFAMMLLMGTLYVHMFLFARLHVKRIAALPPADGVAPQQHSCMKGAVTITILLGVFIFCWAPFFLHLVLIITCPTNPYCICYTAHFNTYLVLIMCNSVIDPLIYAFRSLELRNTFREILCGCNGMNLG

| Ki (MC3-R [4]; [11]) | Inhibition at 1 μM MC4-R (MC4-R [5]) | Inhibition at 1 μM MC5-R (MC5-R [6]) | Inhibition at 1 μM MC1-R [7] | agonist/antagonist status as to MC1-R [8] | agonist/antagonist status as to MC4-R (MC4-R (HEK-293 cells)) | Inhibition at 1 μM MC3-R (MC3-R [9]) | agonist/antagonist status as to MC5-R (MC5-R (HEK-293 cells)) | Structure (SMILES) | also measured |
| --- | --- | --- | --- | --- | --- | --- | --- | --- | --- |
| – | 100% | 100% | 53% | agonist | antagonist | 84% | agonist | N=C(N)NCCC[C@H]1C(=O)N2C(CC[C@@H]2COc2ccc3ccccc3c2)N1C(=O)[C@@H](Cc1ccc(Cl)cc1Cl)NC(=O)[C@@H]1C[C@@H](OCc2ccccc2)CN1 (stereo partly drawn) [Example 113] | – |
| – | 100% | 94% | 53% | agonist | agonist | 77% | agonist | N=C(N)NCCC[C@H]1C(=O)N2C(CC[C@@H]2COc2ccc3ccccc3c2)N1C(=O)[C@@H](Cc1ccc(Cl)cc1Cl)NC(=O)[C@@H](N)COCc1ccccc1 (stereo partly drawn) [Example 114] | – |
| > 1 µM | – | – | – | – | – | – | – | CCCCC(N)C(=O)NC(C)C(=O)NC(Cc1cnc[nH]1)C(=O)NC(Cc1ccccc1)C(=O)N1CC(OCc2ccccc2)CC1C(=O)NCCCN (stereo not drawn) [Example 134] (H-[Nle]AHF[Hyp](Bn)-{NH(CH2)3NH2}; configuration not given here) | Ki (MC4-R [1]; [13]): > 1000 nM; Ki (MC5-R [2]; [12]): > 1000 nM |
| > 1 µM | – | – | – | – | – | – | – | NCCCNC(=O)C1CC(OCc2ccccc2)CN1C(=O)C(Cc1ccc(Cl)cc1)NC(=O)C1Cc2ccccc2CN1 (stereo not drawn) [Example 145] | Ki (MC4-R [1]; [13]): > 1000 nM; Ki [3, 10]: > 1 µM |
| > 1 µM | – | – | – | – | – | – | – | NCCCNC(=O)[C@@H]1C[C@@H](OCc2ccccc2)CN1C(=O)[C@@H](Cc1ccc(Cl)cc1)NC(=O)[C@H]1Cc2ccccc2CN1 [Example 146] | Ki (MC4-R [1]; [13]): > 1000 nM; Ki (MC5-R [2]; [12]): > 1000 nM; Ki [3, 10]: > 1 µM |
| > 1 µM | – | – | – | – | – | – | – | NCCCNC(=O)C1CC(OCc2ccccc2)CN1C(=O)C(Cc1ccccc1)NC(=O)C1Cc2ccccc2CN1 (stereo not drawn) [Example 147] | Ki (MC4-R [1]; [13]): > 1000 nM; Ki (MC5-R [2]; [12]): > 1000 nM; Ki [3, 10]: > 1 µM |
| > 1 µM | – | – | – | – | – | – | – | NCCCNC(=O)[C@@H]1C[C@@H](OCc2ccccc2)CN1C(=O)[C@@H](Cc1ccccc1)NC(=O)[C@H]1Cc2ccccc2CN1 [Example 148] | Ki (MC4-R [1]; [13]): > 1000 nM; Ki (MC5-R [2]; [12]): > 1000 nM; Ki [3, 10]: > 1 µM |

Further lines, the compound ahead of its results:

| Structure (SMILES) | Ki (MC3-R [4]; [11]) | Inhibition at 1 μM MC4-R (MC4-R [5]) | Inhibition at 1 μM MC5-R (MC5-R [6]) | Inhibition at 1 μM MC1-R [7] | agonist/antagonist status as to MC1-R [8] | agonist/antagonist status as to MC4-R (MC4-R (HEK-293 cells)) | Inhibition at 1 μM MC3-R (MC3-R [9]) | agonist/antagonist status as to MC5-R (MC5-R (HEK-293 cells)) | also measured |
| --- | --- | --- | --- | --- | --- | --- | --- | --- | --- |
| NCCCC[C@H]1C(=O)N(CCc2ccc3ccccc3c2)CCN1C(=O)[C@@H](Cc1ccc(Cl)cc1Cl)NC(=O)[C@@H]1CC[C@H](c2ccccc2)N1 [Example 26] | > 1 µM | – | – | – | – | – | – | – | Ki (MC4-R [1]; read-out: Ki (nM) MC4-R): 50 nM; Ki (MC5-R [2]; read-out: Ki (nM) MC5-R): 789 nM; Ki [3, 10]: > 1 µM |
| NCCCC[C@H]1C(=O)N(CCc2ccc3ccccc3c2)CCN1C(=O)[C@@H](Cc1ccc(Cl)cc1Cl)NC(=O)c1ccc(Oc2ccccc2)cc1 [Example 37] | – | 99% | 51% | 35% | antagonist | antagonist | 51% | agonist | – |
| NCCCC[C@H]1C(=O)N(CCc2ccc3ccccc3c2)CCN1C(=O)[C@@H](Cc1ccc(Cl)cc1Cl)NC(=O)c1cccc(Oc2ccccc2)c1 [Example 38] | – | 97% | 61% | 3% | antagonist | antagonist | 21% | agonist | – |
| NCCCC[C@H]1C(=O)N(CCc2ccc3ccccc3c2)CCN1C(=O)[C@@H](Cc1ccc(Cl)cc1Cl)NCc1ccc(-c2ccccc2)cc1 [Example 39] | – | 85% | 9% | 0% | antagonist | antagonist | 4% | agonist | – |
| NCCCC[C@H]1C(=O)N(CCc2ccc3ccccc3c2)CCN1C(=O)[C@@H](Cc1ccc(Cl)cc1Cl)NCCOCc1ccccc1 [Example 40] | – | 91% | 30% | 27% | antagonist | antagonist | 17% | agonist | – |
| NCCCC[C@H]1C(=O)N(CCc2ccc3ccccc3c2)CCN1C(=O)[C@@H](Cc1ccc(Cl)cc1Cl)NCc1ccc2ccccc2c1 [Example 41] | – | 84% | 2% | 4% | antagonist | antagonist | 4% | agonist | – |
| NC(=O)NCCC[C@H]1C(=O)N(CCc2ccc3ccccc3c2)CCN1C(=O)[C@@H](Cc1ccc(Cl)cc1Cl)NC(=O)[C@@H](N)COCc1ccccc1 [Example 44] | – | 94% | 66% | 8% | agonist | agonist | 43% | agonist | – |
| N=C(N)NCCC[C@H]1C(=O)N(CCc2ccc3ccccc3c2)CCN1C(=O)[C@H](N)Cc1ccc(Cl)cc1Cl [Example 51] | – | 95% | 35% | 22% | antagonist | agonist | 47% | agonist | – |
| NCCC[C@H]1C(=O)N(CCc2ccc3ccccc3c2)CCN1C(=O)[C@@H](Cc1ccc(Cl)cc1Cl)NC(=O)[C@@H](N)COCc1ccccc1 [Example 52] | – | 94% | 63% | 36% | agonist | agonist | 25% | agonist | – |
| N=C(N)NCCC[C@H]1C(=O)N(CCc2ccc3ccccc3c2)CCN1C(=O)[C@@H](Cc1ccc(Cl)cc1Cl)NC(=O)[C@@H](N)COCc1ccccc1 [Example 53] | – | 99% | 96% | 81% | agonist | agonist | 93% | agonist | – |
| NCCCCC1C(=O)N2C(COc3ccc4ccccc4c3)CCC2N1C(=O)C(Cc1ccc(Cl)cc1)NC(=O)C1Cc2ccccc2CN1 (stereo not drawn) [Example 80] | > 1 µM | – | – | – | – | – | – | – | – |
| CCCCCCC(=O)NC(COCc1ccccc1)C(=O)NC(Cc1ccc(Cl)cc1)C(=O)N1C(CCCCN)C(=O)N2C(COc3ccc4ccccc4c3)CCC21 (stereo not drawn) [Example 81] | – | – | – | – | – | – | – | – | Ki (MC5-R [2]; read-out: Ki (nM) MC5-R): 134 nM; Ki (MC3-R [4]; read-out: Ki (nM) MC3-R): 0.209 µM |
| N=C(N)NCCCC1C(=O)N2C(COc3ccc4ccccc4c3)CCC2N1C(=O)C(Cc1ccccc1)NC(=O)C(N)Cc1cnc[nH]1 (stereo not drawn) [Example 97] | > 1 µM | – | – | – | – | – | – | – | Ki (MC4-R [1]; read-out: Ki (nM) MC4-R): 226 nM; Ki (MC5-R [2]; [12]): > 1000 nM; Ki ([3]; read-out: Ki (nM) MC1-R): 0.001 µM |
| N=C(N)NCCCC1C(=O)N2C(COc3ccc4ccccc4c3)CCC2N1C(=O)C(Cc1ccccc1Cl)NC(=O)C(N)COCc1ccccc1 (stereo not drawn) [Example 99] | > 1 µM | – | – | – | – | – | – | – | – |
| N=C(N)NCCC[C@H]1C(=O)N2C(CC[C@@H]2COc2ccc3ccccc3c2)N1C(=O)[C@@H](Cc1ccc(Cl)cc1Cl)NC(=O)[C@@H]1CC[C@H](c2ccccc2)N1 (stereo partly drawn) [Example 115] | > 1 µM | – | – | – | – | – | – | – | Ki (MC4-R [1]; read-out: Ki (nM) MC4-R): 12 nM; inhibition at 1 µM (MC4-R [5]): 97%; Ki (MC5-R [2]; read-out: Ki (nM) MC5-R): 99 nM; inhibition at 1 µM (MC5-R [6]): 86%; Ki [3, 10]: > 1 µM; inhibition at 1 µM (MC3-R [9]): 43% |
